{"source": "patent US10227668B2", "about": "“Method for preparing fructose or xylulose from biomass containing glucose or xylose using butanol, and method for separating the same” (KOREA RESEARCH INSTITUTE OF CHEMICAL TECHNOLOGY, priority 2016, dated 2019)", "key": {"Solubility in 1-butanol": {"experiment": "Solubility in 1-butanol", "type": "physicochemical", "conditions": "per 100 g 1-butanol, 50° C.", "source_text": "As a result, glucose having remarkably low solubility at the corresponding temperature can be selectively crystallized, thereby easily separating the glucose by filtration."}, "[1]": {"conditions": "@ 40° C.; cited from earlier work"}, "[2]": {"conditions": "@ 40° C.; cited from earlier work", "remark": "listed apart in the source"}}}
{"smiles": "O=C(CO)[C@@H](O)[C@H](O)[C@H](O)CO", "note": "[fructose]", "values": [{"measurement": "solubility in 1-butanol", "setting": "Solubility in 1-butanol", "value": 32, "unit": "g"}, {"measurement": "solubility in methanol", "setting": "[1]", "value": 229.7, "unit": "mg/mL"}, {"measurement": "solubility in ethanol", "setting": "[2]", "value": 36.3, "unit": "mg/mL"}]}
